Experimental data: publication PMC4461796, “Synthesis, anticholinesterase and antioxidant potentials of ketoesters derivatives of succinimides: a possible role in the management of Alzheimer’s” (Chemistry Central Journal, 2015)
≈ marks a conversion by molar mass, not a printed value. Where “and” joins values, the source holds several entries; their conditions need not be identical. Identical values can stand only once. Like-named read-outs stand apart in the source and are kept apart here.

Experiments:
[1] = ABTS free radicals scavenging assay; settings: for Percent inhibition (mean ± SEM), ABTS free radicals scavenging: n = 3; for IC50 (ABTS free radicals scavenging): from 250-1000 μg/mL tested concentrations
Method: ABTS (2, 2-azinobis [3-ethylbenzthiazoline]-6-sulfonic acid) free radicals were also used to confirm the antioxidant activity of the synthesized compounds. The activity is based on the capacity of antioxidants to scavenge ABTS^+ radical cation causing a reduction in absorbance at 734 nm. ABTS (7 mM) and […] (2.45 mM) solutions were prepared and mixed. The resultant mixture was maintained at room temperature in dark for 12–16 h to get dark color solution containing ABTS^+ radical cations. At the time of activity, ABTS^+ radical cation solution was diluted with Phosphate buffer (0.01 M) pH 7.4 to adjust an absorbance value of 0.70 at 734 nm. Radical scavenging capability of the compounds was analyzed by mixing 300 μl of compound with 3.0 mL of ABTS solution in cuvette. The reduction in absorbance was measured spectrophotometrically after one minute of mixing the solutions and continued for six min. Ascorbic acid was used as a positive control. The assay was repeated three times and percent inhibition was calculated with formula; %scavengingeffect=Controlabsorbance‐Sampleabsorbance/Controlabsorbance×100
(§1) Radical scavenging ability was calculated by a linear regression analysis among the inhibition percentages against the compounds concentrations via the Excel program.

[2] = DPPH free radicals scavenging assay; settings: for Percent inhibition (mean ± SEM), DPPH free radicals scavenging: n = 3; for IC50 (DPPH free radicals scavenging): from 250-1000 μg/mL tested concentrations
Method: The compounds’ free radical scavenging ability was evaluated using 1,1-diphenyl, 2-picrylhydrazyl (DPPH) free radicals. Different dilutions (250, 500 and 1000 μg/mL) of compounds (0.1 mL) were added to 0.004 % methanolic solution of DPPH. After 30 min the absorbance was measured at 517 nm using UV spectrophotometer. Ascorbic acid was used as positive control.
Percent scavenging activity was calculated as; A0−A1/A0×100
Where A0 is absorbance of control and A1 is the absorbance of the compound sample. Each experiment was performed in triplicate and inhibition curves were constructed using the GraphPad prism program (GraphPAD, San Diego, California, USA) and median inhibitory concentrations (IC50) values were determined.
as §1

[3] = molecular target: T1, butyrylcholinesterase (BChE) from equine serum (Equus caballus, UniProt P81908); assay: Butyrylcholinesterase inhibition assay (Ellman's spectrophotometric assay); assay type: biochemical; settings: for IC50: from 250-1000 μg/mL tested concentrations; for inhibition at 250 µg/mL / inhibition at 500 µg/mL / inhibition at 1000 µg/mL: read-out: Percent AChEI (mean ± SEM) (Table 3, butyrylcholinesterase inhibition)
T1 construct: BChE equine serum Lyophilized (CAS 9001-08-5 Sigma-Aldrich GmbH USA); purchased Sigma-Aldrich CAS 9001-08-5 (catalogue number not given); host or cells: equine serum
T1 sequence (P81908 whole entry): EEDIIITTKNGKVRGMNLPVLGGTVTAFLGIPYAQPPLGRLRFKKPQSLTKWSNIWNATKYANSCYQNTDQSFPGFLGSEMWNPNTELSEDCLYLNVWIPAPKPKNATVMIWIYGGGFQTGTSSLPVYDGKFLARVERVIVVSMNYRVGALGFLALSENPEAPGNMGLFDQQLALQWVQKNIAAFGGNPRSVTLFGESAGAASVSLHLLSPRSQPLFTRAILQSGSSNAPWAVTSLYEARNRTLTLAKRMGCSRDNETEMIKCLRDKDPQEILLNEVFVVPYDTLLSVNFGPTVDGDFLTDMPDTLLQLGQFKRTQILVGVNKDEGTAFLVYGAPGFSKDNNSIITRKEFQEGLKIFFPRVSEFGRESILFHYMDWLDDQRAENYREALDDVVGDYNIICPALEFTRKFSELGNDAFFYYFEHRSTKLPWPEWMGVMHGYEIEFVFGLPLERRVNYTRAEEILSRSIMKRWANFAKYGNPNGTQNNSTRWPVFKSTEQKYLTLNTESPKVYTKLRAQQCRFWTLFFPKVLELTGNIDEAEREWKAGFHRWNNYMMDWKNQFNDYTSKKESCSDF
Method: (§2) The assay is based on the acetylcholinesterase promoted hydrolysis of acetylthiocholine iodide and butyrylthiocholine iodide by butyrylcholinesterase. The hydrolysis processes give 5-thio-2-nitrobenzoate anion followed by complexation with DTNB (which give yellow color) and is detected by the spectrophotometer.
(§3) Compounds (each separately) were dissolved in phosphate buffer (0.1 M) in concentrations ranging from 250–1000 μg/mL. […] Finally, potassium hydroxide was used to adjust pH. AChE (518 U/mg solid) and BChE (7–16 U/mg) were diluted in freshly prepared buffer pH 8.0 until final concentrations of 0.03 U/mL and 0.01 U/mL were obtained. Solutions of DTNB (0.0002273 M), ATchI and BTchI (0.0005 M) were prepared in distilled water and were kept in Eppendorf caps in the refrigerator.
(§4) For each assay, an enzyme solution of 5 μl was added to the cuvette followed by addition of compound (205 μl), and finally DTNB reagent (5 μl). The solution mixture was maintained at 30 °C for 15 min using water bath with subsequent addition of substrate solution (5 μl). A double beam spectrophotometer was used to measure the absorbance at 412 nm. […] The absorbances along with the reaction time were taken for four minutes at 30 °C and were repeated in triplicate. Finally, the enzyme activity and enzyme inhibition by control and tested samples were calculated from the rate of absorption with change in time (V = ΔAbs /Δt) as follow;
Where Vmax is enzyme activity in the absence of inhibitor drug.
as §1

[4] = molecular target: T2, acetylcholinesterase (AChE) from Electric eel (Electrophorus electricus, UniProt O42275); assay type: biochemical; settings: n = 3
T2 construct: AChE Electric eel (type-VI-S, CAS 9000-81-1 Sigma-Aldrich GmbH USA); purchased Sigma-Aldrich type-VI-S (CAS 9000-81-1; catalogue number not given)
T2 sequence (O42275 24-633): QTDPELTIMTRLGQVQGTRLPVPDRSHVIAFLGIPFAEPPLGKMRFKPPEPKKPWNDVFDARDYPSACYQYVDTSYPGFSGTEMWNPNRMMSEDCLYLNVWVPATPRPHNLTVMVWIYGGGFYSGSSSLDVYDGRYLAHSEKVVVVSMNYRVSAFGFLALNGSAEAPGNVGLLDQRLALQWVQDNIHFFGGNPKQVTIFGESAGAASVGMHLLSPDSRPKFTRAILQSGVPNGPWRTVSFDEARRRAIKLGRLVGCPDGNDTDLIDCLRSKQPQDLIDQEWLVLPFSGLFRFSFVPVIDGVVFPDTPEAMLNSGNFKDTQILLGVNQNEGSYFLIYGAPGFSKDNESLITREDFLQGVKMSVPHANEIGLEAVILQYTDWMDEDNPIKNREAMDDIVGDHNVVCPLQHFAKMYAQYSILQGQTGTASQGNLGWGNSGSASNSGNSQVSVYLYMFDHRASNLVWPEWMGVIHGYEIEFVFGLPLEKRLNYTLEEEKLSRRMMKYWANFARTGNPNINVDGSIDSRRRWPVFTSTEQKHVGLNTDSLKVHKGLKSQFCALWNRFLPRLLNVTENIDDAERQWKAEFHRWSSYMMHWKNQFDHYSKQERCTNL
Method: as §2, §3, §4
Where Vmax is enzyme activity in the absence of inhibitor drug. […]

O=C1O[C@H]([C@@H](O)CO)C(O)=C1O [Ascorbic acid, reference compound]
Percent inhibition (mean ± SEM), ABTS free radicals scavenging ([1]; conc. 250 μg/mL): 84.66 ± 0.88%
Percent inhibition (mean ± SEM), ABTS free radicals scavenging ([1]; conc. 500 μg/mL): 87.23 ± 0.47%
Percent inhibition (mean ± SEM), ABTS free radicals scavenging ([1]; conc. 1000 μg/mL): 91.62 ± 0.62%
IC50 (ABTS free radicals scavenging) [1]: <0.1 mg/L
Percent inhibition (mean ± SEM), DPPH free radicals scavenging ([2]; conc. 250 μg/mL): 78.61 ± 0.23%
Percent inhibition (mean ± SEM), DPPH free radicals scavenging ([2]; conc. 500 μg/mL): 81.71 ± 0.54%
Percent inhibition (mean ± SEM), DPPH free radicals scavenging ([2]; conc. 1000 μg/mL): 93.56 ± 0.37%
IC50 (DPPH free radicals scavenging) [2]: 20 mg/L (≈ 114 µM)

CCOC(=O)C1(C2CC(=O)N(c3ccccc3)C2=O)CCCC1=O (centres unmarked) [Compound 1, Ethyl 2-oxo-1-(2,5-dioxo-1-phenylpyrrolidin-3-yl)cyclopentanecarboxylate]
IC50 [3]: 128 µM
inhibition at 250 µg/mL [3]: 72.5 ± 0.02%
inhibition at 500 µg/mL [3]: 82.5 ± 0.18%
inhibition at 1000 µg/mL [3]: 90.25 ± 0.02%
Percent AChEI (mean ± SEM) ([4]; concentration 250 μg/mL): 93.25 ± 0.25 ^ns %
Percent AChEI (mean ± SEM) ([4]; concentration 500 μg/mL): 94.25 ± 0.05 ^ns %
Percent AChEI (mean ± SEM) ([4]; concentration 1000 μg/mL): 98.00 ± 0.70% and 98.00 ± 0.70^ns %
Percent inhibition (mean ± SEM), ABTS free radicals scavenging ([1]; conc. 250 μg/mL): 65.00 ± 0.57 %
Percent inhibition (mean ± SEM), ABTS free radicals scavenging ([1]; conc. 500 μg/mL): 77.45 ± 0.54 %
Percent inhibition (mean ± SEM), ABTS free radicals scavenging ([1]; conc. 1000 μg/mL): 88.51 ± 0.62 %
IC50 (ABTS free radicals scavenging) [1]: 90 mg/L (≈ 273 µM)
Percent inhibition (mean ± SEM), DPPH free radicals scavenging ([2]; conc. 250 μg/mL): 35.60 ± 0.75 %
Percent inhibition (mean ± SEM), DPPH free radicals scavenging ([2]; conc. 500 μg/mL): 52.49 ± 0.78 %
Percent inhibition (mean ± SEM), DPPH free radicals scavenging ([2]; conc. 1000 μg/mL): 72.41 ± 0.45 %
IC50 (DPPH free radicals scavenging) [2]: 440 mg/L (≈ 1340 µM)

CCOC(=O)C1(C2CC(=O)N(Cc3ccccc3)C2=O)CCCC1=O (centres unmarked) [Compound 2, Ethyl 1-(1-benzyl-2,5-dioxopyrrolidin-3-yl)-2-oxocyclopentanecarboxylate]
IC50 [3]: < 0.291 µM
inhibition at 250 µg/mL [3]: 84.25 ± 0.12%
inhibition at 500 µg/mL [3]: 86.75 ± 0.22%
inhibition at 1000 µg/mL [3]: 90 ± 0.1%
Percent AChEI (mean ± SEM) ([4]; concentration 250 μg/mL): 91.00 ± 0.52% and 91.00 ± 0.52 ^ns %
Percent AChEI (mean ± SEM) ([4]; concentration 500 μg/mL): 91.75 ± 0.04% and 91.75 ± 0.04 ^ns %
Percent AChEI (mean ± SEM) ([4]; concentration 1000 μg/mL): 98.75 ± 0.25% and 98.75% and 98.75 ± 0.25 ^ns %
Percent inhibition (mean ± SEM), ABTS free radicals scavenging ([1]; conc. 250 μg/mL): 59.66 ± 0.66 %
Percent inhibition (mean ± SEM), ABTS free radicals scavenging ([1]; conc. 500 μg/mL): 72.45 ± 0.65 %
Percent inhibition (mean ± SEM), ABTS free radicals scavenging ([1]; conc. 1000 μg/mL): 86.49 ± 0.49 %
IC50 (ABTS free radicals scavenging) [1]: 141 mg/L (≈ 411 µM)
Percent inhibition (mean ± SEM), DPPH free radicals scavenging ([2]; conc. 250 μg/mL): 33.61 ± 0.66 %
Percent inhibition (mean ± SEM), DPPH free radicals scavenging ([2]; conc. 500 μg/mL): 52.48 ± 0.56 %
Percent inhibition (mean ± SEM), DPPH free radicals scavenging ([2]; conc. 1000 μg/mL): 70.32 ± 0.61 %
IC50 (DPPH free radicals scavenging) [2]: 460 mg/L (≈ 1340 µM)

CCOC(=O)C1(C2CC(=O)N(c3ccccc3)C2=O)CCCCC1=O (centres unmarked) [Compound 3, Ethyl 2-oxo-1-(2,5-dioxo-1-phenylpyrrolidin-3-yl)cyclohexanecarboxylate]
IC50 [3]: 20.4 µM
inhibition at 250 µg/mL [3]: 78.25 ± 0.04%
inhibition at 500 µg/mL [3]: 89 ± 0.3%
inhibition at 1000 µg/mL [3]: 89.25 ± 0.5%
Percent AChEI (mean ± SEM) ([4]; concentration 250 μg/mL): 95.25 ± 0.20 ^ns %
Percent AChEI (mean ± SEM) ([4]; concentration 500 μg/mL): 96.00 ± 0.80 ^ns %
Percent AChEI (mean ± SEM) ([4]; concentration 1000 μg/mL): 98.50 ± 0.09% and 98.50 ± 0.09 ^ns %
Percent inhibition (mean ± SEM), ABTS free radicals scavenging ([1]; conc. 250 μg/mL): 64.67 ± 0.89 %
Percent inhibition (mean ± SEM), ABTS free radicals scavenging ([1]; conc. 500 μg/mL): 71.25 ± 0.48 %
Percent inhibition (mean ± SEM), ABTS free radicals scavenging ([1]; conc. 1000 μg/mL): 80.41 ± 0.73 %
IC50 (ABTS free radicals scavenging) [1]: 73 mg/L (≈ 213 µM)
Percent inhibition (mean ± SEM), DPPH free radicals scavenging ([2]; conc. 250 μg/mL): 30.59 ± 0.67 %
Percent inhibition (mean ± SEM), DPPH free radicals scavenging ([2]; conc. 500 μg/mL): 54.64 ± 0.70 %
Percent inhibition (mean ± SEM), DPPH free radicals scavenging ([2]; conc. 1000 μg/mL): 60.40 ± 0.49 %
IC50 (DPPH free radicals scavenging) [2]: 535 mg/L (≈ 1560 µM)

CCOC(=O)C1(C2CC(=O)N(Cc3ccccc3)C2=O)CCCCC1=O (centres unmarked) [Compound 4, 1Ethyl 1-(1-benzyl-2,5-dioxopyrrolidin-3-yl)-2-oxocyclohexanecarboxylate]
IC50 [3]: 5.6 µM
inhibition at 250 µg/mL [3]: 87.5 ± 0.04%
inhibition at 500 µg/mL [3]: 88.5 ± 0.5%
inhibition at 1000 µg/mL [3]: 98.5 ± 0.18%
Percent AChEI (mean ± SEM) ([4]; concentration 250 μg/mL): 93.25 ± 0.15 ^ns %
Percent AChEI (mean ± SEM) ([4]; concentration 500 μg/mL): 96.00 ± 0.55 ^ns %
Percent AChEI (mean ± SEM) ([4]; concentration 1000 μg/mL): 97.25 ± 0.07% and 97.25 ± 0.07 ^ns %
Percent inhibition (mean ± SEM), ABTS free radicals scavenging ([1]; conc. 250 μg/mL): 54.00 ± 1.15 %
Percent inhibition (mean ± SEM), ABTS free radicals scavenging ([1]; conc. 500 μg/mL): 67.33 ± 0.77 %
Percent inhibition (mean ± SEM), ABTS free radicals scavenging ([1]; conc. 1000 μg/mL): 73.59 ± 0.43 %
IC50 (ABTS free radicals scavenging) [1]: 173 mg/L (≈ 484 µM)
Percent inhibition (mean ± SEM), DPPH free radicals scavenging ([2]; conc. 250 μg/mL): 20.34 ± 0.58 %
Percent inhibition (mean ± SEM), DPPH free radicals scavenging ([2]; conc. 500 μg/mL): 24.75 ± 0.64 %
Percent inhibition (mean ± SEM), DPPH free radicals scavenging ([2]; conc. 1000 μg/mL): 45.80 ± 0.61 %
IC50 (DPPH free radicals scavenging) [2]: >1000 mg/L

COc1ccc2c3c1O[C@H]1C[C@@H](O)C=C[C@@]31CCN(C)C2 [Galanthamine, reference compound]
inhibition at 250 µg/mL [3]: 71.72 ± 0.51%
inhibition at 500 µg/mL [3]: 85.47 ± 0.59%
inhibition at 1000 µg/mL [3]: 94.5 ± 0.71%
